These are literature values, as cited in patent US8471030B2, “Purification of montelukast using simulated moving bed” (Orochem Technologies Inc., priority 2010, dated 2013).

Consider `CC(C)(O)c1ccccc1CC[C@@H](SCC1(CC(=O)O)CC1)c1cccc(/C=C/c2ccc3ccc(Cl)cc3n2)c1` [Montelukast], for which the “stability in acidic solutions” value (acidic solutions) is listed as “degrade rapidly”. Moreover, the “stability in solution when exposed to light” value (in solution, exposed to light, forms the Montelukast-cis isomer) is listed as “unstable when exposed to light”.
